The values below come from patent EP3095787A1, “[…] ACTIVE COMPOUNDS AS DAG-LIPASE INHIBITORS” (Universiteit Leiden, priority 2015, dated 2016).

One test deals with T1, hDAGL-β (Homo sapiens, UniProt Q8NCG7).
T1 sequence (Q8NCG7 1-672): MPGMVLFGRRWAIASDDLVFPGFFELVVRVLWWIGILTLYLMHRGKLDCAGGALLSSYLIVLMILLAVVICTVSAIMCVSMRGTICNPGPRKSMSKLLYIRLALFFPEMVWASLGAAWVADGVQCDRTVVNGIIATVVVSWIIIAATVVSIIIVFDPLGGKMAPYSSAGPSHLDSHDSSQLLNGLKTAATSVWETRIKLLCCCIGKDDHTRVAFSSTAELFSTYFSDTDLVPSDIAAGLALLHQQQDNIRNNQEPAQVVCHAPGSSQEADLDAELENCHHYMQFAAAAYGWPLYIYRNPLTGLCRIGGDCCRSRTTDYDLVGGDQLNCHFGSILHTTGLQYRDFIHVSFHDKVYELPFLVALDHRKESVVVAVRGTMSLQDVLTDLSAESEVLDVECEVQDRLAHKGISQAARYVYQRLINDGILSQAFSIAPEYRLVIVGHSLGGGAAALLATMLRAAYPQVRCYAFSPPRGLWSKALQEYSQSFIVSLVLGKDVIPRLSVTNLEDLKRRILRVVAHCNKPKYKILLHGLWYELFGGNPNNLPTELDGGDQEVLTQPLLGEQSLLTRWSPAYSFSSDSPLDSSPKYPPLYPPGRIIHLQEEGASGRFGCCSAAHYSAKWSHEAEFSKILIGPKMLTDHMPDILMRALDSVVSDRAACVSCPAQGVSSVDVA
The test can be described thus: Competitive ABPP with MB064 on membranes of hDAGL-β transfected HEK293 cells. Type of test: biochemical. On the set-up: FLAG; expressed in transfected cells; host or cells: HEK293, membranes. The note with it: n=3, read-out: pIC50 of hDAGL-β labeling (converted). Here is the method: In view of the high homology between DAGL-α and DAGL-β the inventors assesed the activity of compound 25 also on native DAGL-β. To this end, it was tested whether the ABP probe MB064 was also able to label DAGL-β. MB064 was incubated with membranes from mock and hDAGL-β transfected HEK293 cells. MB064 was able to label a protein at the expected molecular weight of DAGL-β, which was not present in the control membranes, or in S443A-hDAGL-β transfected cells, in which the catalytic serine is replaced by alanine using site-directed mutagenesis (Figure 1 F). Thus, the tailor-made probe can also detect DAGL-β.

The next test concerns human PC3 cells. Briefly: Lipidomics in PC3 cells. Type of test: cell-based. To be noted: 4h at 37 °C in serum free medium. Here is the method:
To test the activity of inventive compound 25 in a human cell line, human PC3 cells (prostate cancer cell line) were used. The protocol for lipodomics in PC3 cells is given below. Before inhibitor treatment, the culture medium was removed and the cells were washed with warm (37 °C) serum free medium (3x). The cells were treated with vehicle (DMSO) or inhibitor for 4h at 37 °C in serum free medium. After 4h of incubation medium was removed and the cells were washed with cold (4°C) DPBS (3x) and subsequently suspended in DPBS and pelleted. The cell pellet metabolome was extracted and by MeOH/CHCl3 extraction and analysed by LCMS/MS of a triple quad mass spectometer (agilent). The concentration of the lipids was determined by comparison with spiked deuterated standards of the lipd species. […] This may indicate that downstream metabolic pathways of 2-AG signaling are also affected and that the biosynthesis of 2-AG is the rate-limiting step.

Take `Cc1ccc(-c2cnc3nc(C(=O)CCCCCc4ccccc4)oc3c2)cc1` [Compound 25, 1-(6-(p-Tolyl)oxazolo[4,5-b]pyridin-2-yl)-6-phenylhexan-1-one]: the IC50 on hDAGL-β was 39.8 nM. In addition, in the test on human PC3 cells, the 2-AG levels entry is “reduced 2-AG levels”, the arachidonic acid levels entry is listed as “reduced” and the “substrate levels of DAGL” value is “no change”.
